Source: ChEMBL document CHEMBL6177964 (Eur J Med Chem, 2025)
Residues, ends and D or L forms follow the SMILES beside them.

Columns and labels:
[1] = target: T1, Angiotensin-converting enzyme (Homo sapiens, UniProt P12821); test: Inhibition of ACE (unknown origin) preincubated with compound for 5 mins and measured after 60 mins
[2] = target: T1, Angiotensin-converting enzyme; test: Inhibition of ACE (unknown origin)

T1 sequence (P12821 whole entry): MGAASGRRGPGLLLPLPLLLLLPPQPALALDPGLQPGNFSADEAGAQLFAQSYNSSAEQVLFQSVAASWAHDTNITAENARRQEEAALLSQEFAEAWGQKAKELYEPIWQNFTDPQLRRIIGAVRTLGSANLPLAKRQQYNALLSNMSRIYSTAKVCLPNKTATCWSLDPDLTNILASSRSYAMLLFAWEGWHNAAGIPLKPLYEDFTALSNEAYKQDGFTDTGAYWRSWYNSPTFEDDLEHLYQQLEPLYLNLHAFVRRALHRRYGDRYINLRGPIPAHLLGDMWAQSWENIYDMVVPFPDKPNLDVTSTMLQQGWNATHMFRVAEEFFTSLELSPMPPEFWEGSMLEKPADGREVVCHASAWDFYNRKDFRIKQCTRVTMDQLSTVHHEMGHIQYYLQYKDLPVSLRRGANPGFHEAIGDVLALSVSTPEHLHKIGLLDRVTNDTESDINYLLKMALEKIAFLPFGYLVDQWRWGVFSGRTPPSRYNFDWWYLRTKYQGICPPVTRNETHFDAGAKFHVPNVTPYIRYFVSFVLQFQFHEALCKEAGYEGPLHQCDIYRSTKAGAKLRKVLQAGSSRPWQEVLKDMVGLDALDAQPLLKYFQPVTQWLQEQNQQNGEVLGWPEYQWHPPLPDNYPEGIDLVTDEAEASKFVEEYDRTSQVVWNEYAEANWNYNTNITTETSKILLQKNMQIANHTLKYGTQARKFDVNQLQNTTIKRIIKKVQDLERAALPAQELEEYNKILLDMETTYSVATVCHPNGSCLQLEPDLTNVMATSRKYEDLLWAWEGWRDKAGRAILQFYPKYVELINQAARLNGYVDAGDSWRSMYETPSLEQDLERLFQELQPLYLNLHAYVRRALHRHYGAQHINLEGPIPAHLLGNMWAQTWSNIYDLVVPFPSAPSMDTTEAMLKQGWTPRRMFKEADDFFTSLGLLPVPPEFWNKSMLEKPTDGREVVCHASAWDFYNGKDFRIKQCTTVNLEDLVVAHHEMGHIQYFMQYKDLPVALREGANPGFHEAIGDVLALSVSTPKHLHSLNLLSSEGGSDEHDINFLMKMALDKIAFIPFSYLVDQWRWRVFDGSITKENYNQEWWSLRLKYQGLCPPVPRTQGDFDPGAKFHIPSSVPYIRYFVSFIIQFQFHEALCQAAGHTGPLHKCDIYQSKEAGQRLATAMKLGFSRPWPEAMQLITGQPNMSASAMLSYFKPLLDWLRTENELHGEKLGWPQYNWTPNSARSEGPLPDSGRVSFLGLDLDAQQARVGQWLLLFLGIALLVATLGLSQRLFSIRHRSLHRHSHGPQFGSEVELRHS

N=C(N)NCCC[C@H](NC(=O)[C@@H]1CCCN1C(=O)[C@H](CC(N)=O)NC(=O)CN)C(=O)O (H-GNPR-OH)
IC50 [1]: 3050 µM

CC(C)C[C@H](NC(=O)[C@H](Cc1c[nH]c2ccccc12)NC(=O)[C@H](CCCCN)NC(=O)[C@H](Cc1ccccc1)NC(=O)[C@@H]1CCCN1C(=O)[C@H](CC(N)=O)NC(=O)[C@@H](NC(=O)[C@@H](NC(=O)[C@@H](N)C(C)C)[C@@H](C)O)C(C)C)C(=O)N1CCC[C@H]1C(=O)O (H-VTVNPFKWLP-OH)
IC50 [2]: 5.5 µM

CSCC[C@H](NC(=O)[C@H](CCCCN)NC(=O)[C@H](C)NC(=O)[C@@H](N)CCCCN)C(=O)O (H-KAKM-OH)
IC50 [1]: 789 µM

CC(C)[C@H](NC(=O)[C@H](CCCCN)NC(=O)[C@H](C)NC(=O)[C@@H](N)CCCCN)C(=O)O (H-KAKV-OH)
IC50 [1]: 2920 µM

C[C@H](NC(=O)[C@@H](N)CCCCN)C(=O)N[C@@H](CCCCN)C(=O)N[C@@H](Cc1ccccc1)C(=O)O (H-KAKF-OH)
IC50 [1]: 12.5 µM

NCC(=O)N[C@@H](CCC(=O)O)C(=O)N1CCC[C@H]1C(=O)N[C@@H](Cc1ccccc1)C(=O)O (H-GEPF-OH)
IC50 [1]: 36.1 µM

C[C@H](NC(=O)[C@@H](N)CCCCN)C(=O)N[C@@H](CCCCN)C(=O)O (H-Lys-Ala-Lys-OH)
IC50 [1]: 1860 µM

C[C@H](NC(=O)[C@H](CCCCN)NC(=O)[C@H](C)NC(=O)[C@@H](N)CCCCN)C(=O)O (H-KAKA-OH)
IC50 [1]: 667 µM

CC[C@H](C)[C@H](NC(=O)[C@H](CCCCN)NC(=O)[C@H](C)NC(=O)[C@@H](N)CCCCN)C(=O)O (H-KAKI-OH)
IC50 [1]: 6890 µM
